Reference: US20180371408A1, “CELL CULTURES AND METHODS OF USE” (priority 2017, published 2018)
Where two headings read alike, the source gives them in different places.

Key:
[1] = tested on: testicular cell co-culture (C18-4, TM4, TM3); experiment: Machine learning-based HCA phenotype classification (multinucleated cells, M phase, stretching F-actin filaments); assay type: cell-based, mouse; settings: for induction of multinucleated cells, in words: FIG. 12F
From the text: Our processing pipeline included cell segmentation, localization, and measurements of multiple features of single cells. This pipeline identified the nuclei from the Hoechst 33342 (nuclei) channel and used the nuclei as primary objects to assist in the identification of secondary objects, which included F-actin and γ-H2AX in each cell. The pipeline (which is freely available from the authors upon request) has the ability to measure over 200 cellular features, including size, shape, intensity, and texture of nuclei, intensity, and texture of F-actin, and intensity of γ-H2AX in a single cell. In order to measure the nuclear area and shape of a cell, multiple features such as object area, perimeter eccentricity and orientation had to be extracted. Object intensity was determined through measurements of various intensity statistics including the integrated intensity, the mean intensity, and the maximal or minimal pixel intensities within an object or on the object's edge. To quantify the object's texture, Haralick texture features derived from the co-occurrence matrix were employed to calculate the occurrence of pairs of pixels with specific intensity values and spatial relationships in an image. The texture features were described by homogeneity, local variation, randomness, and the contrast of object texture. Supervised ML was performed with the CellProfiler Analyst via the “RandomForest Classifier” algorithm (Broad Institute, MA) (Jones et al., 2008). RandomForest is an ensemble learning method that constructs decision trees with an averaged prediction, and is robust in high-dimensional data analysis with low bias (Breiman, 2001).
In the current study, we quantified three key phenotypic changes in the co-culture model. The first change we noticed was the induction of multinucleated cells, a unique toxicity marker for BPAF observed in spermatogonia cells in the previous study, was once again examined in the current co-culture testicular cell model. As depicted in FIG. 10, the multinucleated phenotype was identified as a cell with giant nuclei and irregular nuclear contour. […] Mitotic phenotypes were identified as cells with small condensed nuclei with a round shape (prometaphase), condensed nuclei with shallow concavities (metaphase), and nuclei with separated and aligned chromosomes (anaphase, telophase, and late telophase). […] Cells with phenotypic 3D structure have F-actin bundles stretching across their cytoplasm. During the training process, a small set of unclassified objects were manually sorted into two classes, including non-multinucleated cells or multinucleated cells, cells not in M phases or cells in M phase, and cells with or without stretching F-actin filaments. The maximum number of features was set as 20 in order to generate rules for phenotypic classification, and those features were automatically selected by the RandomForest classifier to capture the subtle differences between the classes. The phenotype classification was based on the images acquired by Arrayscan™ VTI HCS reader, and multiple features were measured by CellProfiler. The input features included values describing nuclei size and shape, DNA intensity and texture, F-actin intensity and texture, and γ-H2AX intensity at the single-cell level. For multinucleated cells and M phase cells, the training set was established by visual examination of the images in the nuclei channel. For a cell with stretching F-actin filaments, initial manual classification during the training process was based on multi-channel images, including nuclei, F-actin and γ-H2AX. The results were presented in terms of the number of cells in predefined classes and total cell number per image field. The field-based data were averaged for the well-based condition.
(§1) Data were presented as mean±standard deviation (SD).

Leydig cells (TM3) = experiment: cells; assay type: cell-based, mouse; settings: Mus musculus, Leydig, read-out: IC50
[2] = tested on: testicular cell co-culture (C18-4, TM4, TM3); experiment: High-content image analysis of nuclear morphology and cell number; assay type: cell-based, mouse
Method: BrdU incorporation, cell fixation, BrdU, and DNA staining followed the previously published protocol (Liang, et al., 2017b). the determination of DNA damage responses and cytoskeleton analysis was conducted after cell fixation. The cells were then permeabilized by a 0.1% Triton X-100 in PBS, and then incubated with a mouse-anti phosphor-histone H2AX (Ser139) (γ-H2AX) overnight at 4° C. […] Finally, prior to acquiring the images, the cells were stained with Alexa Fluor 488 Phallodin for 30 minutes to stain the F-actin (Liang, et al., 2017)
Multi-channel images were then automatically acquired using an Arrayscan™ VTI HCS reader (Thermo Scientific, MA) with the HCS Studio 2.0 Target Activation BioApplication module. Forty-nine fields per well were acquired at 20× and 40× magnification using a Hamamatsu ROCA-ER digital camera in combination with a 0.63× coupler and Carl Zeiss microscope optics in auto-focus mode. Image smoothing was conducted in order to reduce object fragmentation prior to the primary object identification that takes place in the first channel. Channel one (Ch1) applied the BGRFR 386_23 for Hoechst 33342 that was used for auto-focus, object identification, and segmentation. The border objects were then excluded. Channel two (Ch2) applied applied the BGRFR 549_15, which identified the BrdU staining and BGRFR 485_20 to identify the F-actin staining. BGRFR 650_13 was applied in Channel three (Ch3) and identified the γ-H2AX staining.
Multi-Channel images were analyzed using HCS Studio™2.0 TargetActivation BioApplication. Multiple parameters of nuclei were characterized in HCA, including nuclei number, nuclear area, shape, and total DNA intensity. Nuclear shape measurements included P2A, a ratio of the nuclear perimeter squared to 4it*nucleus area (perimeter^2/4π*enuclear area) to evaluate nuclear smoothness, and LWR, a ratio of the nuclear length to width, to measure nuclear roundness. For a fairly round and smooth object, the values for P2A and LWR are around 1.0. Total intensity was defined as total pixel intensity within a cell in the respective channel. The total intensities of BrdU, γ-H2AX, and F-actin of the individual cells were also quantified. With forty-nine 20× images acquired from each well, at least 1,000 cells were analyzed per well, and single-cell based data were extracted for further analysis. The experiments were performed with at least four biological replicates and repeated twice.
as §1

[3] = tested on: testicular co-culture: spermatogonial cells (C18-4), Sertoli cells (TM4), Leydig cells (TM3); experiment: cells; settings: Mus musculus
reproductive system = settings: based on ToxCast database and literature search; cited from earlier work
HepG2 cell line = settings: cited from earlier work
[4] = tested on: pregnancies and sexual development; settings: rats, doses of ˜80 and ˜280 mg/kg; cited from earlier work
[5] = tested on: human breast cancer cells; settings: cited from earlier work

| Structure (SMILES) | induction of multinucleated cells, in words [1] | IC50 (Leydig cells (TM3); 24 h) [µM] | IC50 (Leydig cells (TM3); 48 h) [µM] | doses reducing cell number ([2]; 24, 48, and 72 h) [µM] | doses with significant increase in nuclear area ([2]; 24, 48, and 72 h) [µM] | doses significantly increasing P2A ([2]; 24 and 48 h) [µM] | doses significantly reducing LWR (nuclear roundness) ([2]; 72 h) [µM] | doses significantly reducing P2A (nuclear smoothness) ([2]; 72 h) [µM] | IC50 ([3]; 24 h) [µM] | IC50 ([3]; 48 h) [µM] | doses with significant induction of cells in M phase ([1]; 48 and 72 h) [µM] | effect on pregnancies and sexual development [4] | doses significantly reducing cell number ([2]; 24 h) [µM] | other results |
| --- | --- | --- | --- | --- | --- | --- | --- | --- | --- | --- | --- | --- | --- | --- |
| CC(C)(c1cc(Br)c(O)c(Br)c1)c1cc(Br)c(O)c(Br)c1 [TBBPA, 2,2′,6,6′-Tetrabromo-4,4′-isopropylidenediphenol] | did not induce multinucleation | 70 | 60 | ≥ 10 | 15 | 15 | 15 | 15 | 70 | 58 | – | – | – | doses with significant induction of cells in M phase ([1]; 24, 48, and 72 h): 15 µM; IC50 ([3]; read-out: IC50 values (mostly)): ≤ 100 µM |
| CC(C)(c1ccc(O)cc1)c1ccc(O)cc1 [BPA, 4,4′-(propane-2,2-diyl) diphenol] | did not induce multinucleation | 88 | 80.5 | – | 100 | – | – | – | 210 | 186 | 100 | did not alter these reproductive endpoints | 100 | doses with significant decrease of cells with stretching F-actin filaments (phenotypic 3D structure) ([1]; 24 h): 100 µM; In vivo Reproductive Toxicity (reproductive system): +; dose not able to induce γ-H2AX (HepG2 cell line): > 100 µM; doses significantly reducing LWR (nuclear roundness) ([2]; 48 and 72 h): ≥ 25 µM; doses significantly reducing LWR (nuclear roundness) ([2]; 24 h): ≥ 50 µM; doses significantly reducing P2A (nuclear smoothness) ([2]; 24 h): 50 µM; doses with significant decrease in nuclear area ([2]; 24 h): ≥ 10 µM; dose able to induce γ-H2AX [5]: 10 nM |
| O=S(=O)(c1ccc(O)cc1)c1ccc(O)cc1 [BPS, 4,4′-Sulfonyldiphenol] | did not induce multinucleation | 435 | ≥ 400 | – | – | – | – | – | 574 | 341 | 100 | – | 100 | doses with significant decrease of cells with stretching F-actin filaments (phenotypic 3D structure) ([1]; 72 h): 100 µM; doses with significant increase in nuclear area ([2]; 72 h): 100 µM |
| Oc1ccc(C(c2ccc(O)cc2)(C(F)(F)F)C(F)(F)F)cc1 [BPAF, 4,4′-(Hexafluoroisopropylidene)diphenol] | – | 30 | 20 | ≥ 2.5 | – | 5 | 15 | 15 | 78 | 50 | – | impaired pregnancies and sexual development | – | Spearman correlation of total F-actin and γ-H2AX intensity, multinucleated versus non-multinucleated cells ([1]; 5 μM for 24, 48, and 72 h): higher resulting positive correlation; dose significantly inducing multinucleated cells ([1]; 24, 48, and 72 h): 5 µM; doses with significant induction of cells in M phase ([1]; 24 h): 10 µM; doses significantly increasing LWR ([2]; 24 and 48 h): 5 µM; doses with significant increase in nuclear area ([2]; 24 h): 10 µM |
